Data as given in patent US20220119354A1, “DIAMINO-SUBSTITUTED PYRIDINES AND PYRIMIDINES AS HERBICIDES” (FMC Corporation, priority 2019, published 2022).

What was measured:
Format in all cases: in vivo
kochia (Kochia scoparia) [1] = experiment: Test A preemergence, kochia; settings: 0 to 100 scale, 0 is no effect, 100 is complete control
In short: (§1)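 Seeds sown in loam–sand blend received a directed soil spray of test chemical in non-phytotoxic solvent with surfactant (preemergence); postemergence plants at 2–10 cm, one- to two-leaf stage, were sprayed with the same formulation. Injury rated visually versus untreated controls after ~10 d in greenhouse, 0–100 scale.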

rice (Oryza sativa) = experiment: Test B flooded paddy test, rice; settings: Flood, 250 g ai/ha, applied to paddy water, 2-leaf stage, visual evaluation after 13 to 15 d
In short: (§2)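 Each response is a visual 0–100 rating made against untreated controls, where 0 is no effect and 100 is complete control; a dash marks no result. Compound was dosed into 3 cm paddy water over 2-leaf plants, assessed after 13 to 15 d.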

[2] = system: ragweed (common ragweed, Ambrosia elatior); experiment: Test A postemergence, ragweed; settings: 0 to 100 scale, 0 no effect, 100 complete control
In short: as §1

[3] = system: blackgrass (Alopecurus myosuroides); experiment: Test A postemergence, blackgrass; settings: 0 to 100 scale, 0 no effect, 100 complete control
In short: as §1

[4] = system: barnyardgrass (Echinochloa crus-galli); experiment: Test A postemergence, barnyardgrass; settings: 0 to 100 scale, 0 no effect, 100 complete control
In short: as §1

[5] = system: galium (catchweed bedstraw, Galium aparine); experiment: Test A postemergence, galium; settings: 0 to 100 scale, 0 no effect, 100 complete control
In short: as §1

[6] = system: ragweed (common ragweed, Ambrosia elatior); experiment: Test A preemergence, ragweed; settings: 0 to 100 scale, 0 is no effect, 100 is complete control
In short: as §1

[7] = system: foxtail, giant (Setaria faberii); experiment: Test A postemergence, giant foxtail; settings: 0 to 100 scale, 0 no effect, 100 complete control
In short: as §1

[8] = system: barnyardgrass (Echinochloa crus-galli); experiment: Test B flooded paddy test, barnyardgrass; settings: Flood, 250 g ai/ha, applied to paddy water, 2-leaf stage, visual evaluation after 13 to 15 d
In short: as §2

[9] = system: foxtail, giant (Setaria faberii); experiment: Test A preemergence, giant foxtail; settings: 0 to 100 scale, 0 is no effect, 100 is complete control
In short: as §1

[10] = system: sedge, umbrella (small-flower umbrella sedge, Cyperus difformis); experiment: Test B flooded paddy test, umbrella sedge; settings: Flood, 250 g ai/ha, applied to paddy water, 2-leaf stage, visual evaluation after 13 to 15 d
In short: as §2

[11] = system: ryegrass, Italian (Lolium multiflorum); experiment: Test A preemergence, Italian ryegrass; settings: 0 to 100 scale, 0 is no effect, 100 is complete control
In short: as §1

corn (Zea mays) = experiment: Test A postemergence, corn; settings: 0 to 100 scale, 0 no effect, 100 complete control
In short: as §1

[12] = system: pigweed (Amaranthus retroflexus); experiment: Test A postemergence, pigweed; settings: 0 to 100 scale, 0 no effect, 100 complete control
In short: as §1

[13] = system: barnyardgrass (Echinochloa crus-galli); experiment: Test A preemergence, barnyardgrass; settings: 0 to 100 scale, 0 is no effect, 100 is complete control
In short: as §1

kochia (Kochia scoparia) [14] = experiment: Test A postemergence, kochia; settings: 0 to 100 scale, 0 no effect, 100 complete control
In short: as §1

[15] = system: ducksalad (Heteranthera limosa); experiment: Test B flooded paddy test, ducksalad; settings: Flood, 250 g ai/ha, applied to paddy water, 2-leaf stage, visual evaluation after 13 to 15 d
In short: as §2

[16] = system: pigweed (Amaranthus retroflexus); experiment: Test A preemergence, pigweed; settings: 0 to 100 scale, 0 is no effect, 100 is complete control
In short: as §1

[17] = system: wheat (Triticum aestivum); experiment: Test A postemergence, wheat; settings: 0 to 100 scale, 0 no effect, 100 complete control
In short: as §1

[18] = system: ryegrass, Italian (Lolium multiflorum); experiment: Test A postemergence, Italian ryegrass; settings: 0 to 100 scale, 0 no effect, 100 complete control
In short: as §1

CC(Nc1ncc(C(F)(F)F)c(N)n1)c1cc2c(Cl)cccc2o1 (stereo not drawn) [Compound 100]
45: Plant response rating, Barnyardgrass (0 to 100 scale, 0 is no effect, 100 is complete control) [8]
90: Kochia plant response rating (kochia (Kochia scoparia) [1]; 125 g ai/ha) | Kochia plant response rating (kochia (Kochia scoparia) [1]; 500 g ai/ha) | Plant response rating, Barnyardgrass ([4]; 500 g ai/ha) | Foxtail, Giant plant response rating ([9]; 125 g ai/ha) | Ryegrass, Italian plant response rating ([11]; 500 g ai/ha) | Barnyardgrass plant response rating ([13]; 500 g ai/ha)
20: Plant response rating, Foxtail, Giant ([7]; 125 g ai/ha) | Plant response rating, Corn (corn (Zea mays); 500 g ai/ha) | Plant response rating, Ducksalad (0 to 100 scale, 0 is no effect, 100 is complete control) [15]
40: Plant response rating, Wheat ([17]; 500 g ai/ha) | Plant response rating, Ryegrass, Italian ([18]; 125 g ai/ha)
70: Plant response rating, Blackgrass ([3]; 500 g ai/ha) | Plant response rating, Ryegrass, Italian ([18]; 500 g ai/ha)
60: Plant response rating, Ragweed ([2]; 125 g ai/ha) | Barnyardgrass plant response rating ([13]; 125 g ai/ha) | Plant response rating, Kochia (kochia (Kochia scoparia) [14]; 125 g ai/ha)
35: Plant response rating, Sedge, Umbrella (0 to 100 scale, 0 is no effect, 100 is complete control) [10]
100: Plant response rating, Ragweed ([2]; 500 g ai/ha) | Plant response rating, Galium ([5]; 125 g ai/ha) | Plant response rating, Galium ([5]; 500 g ai/ha) | Ragweed plant response rating ([6]; 500 g ai/ha) | Foxtail, Giant plant response rating ([9]; 500 g ai/ha) | Plant response rating, Pigweed ([12]; 125 g ai/ha) | Plant response rating, Pigweed ([12]; 500 g ai/ha) | Plant response rating, Kochia (kochia (Kochia scoparia) [14]; 500 g ai/ha) | Pigweed plant response rating ([16]; 125 g ai/ha) | Pigweed plant response rating ([16]; 500 g ai/ha)
0: Plant response rating, Rice (0 to 100 scale, 0 is no effect, 100 is complete control) (rice (Oryza sativa)) | Ryegrass, Italian plant response rating ([11]; 125 g ai/ha) | Plant response rating, Corn (corn (Zea mays); 125 g ai/ha)
50: Ragweed plant response rating ([6]; 125 g ai/ha) | Plant response rating, Foxtail, Giant ([7]; 500 g ai/ha) | Plant response rating, Wheat ([17]; 125 g ai/ha)
30: Plant response rating, Blackgrass ([3]; 125 g ai/ha) | Plant response rating, Barnyardgrass ([4]; 125 g ai/ha)

C[C@@H](Nc1ncc(C#N)c(N)n1)c1cc2ccccc2s1 [Compound 104]
90: Kochia plant response rating (kochia (Kochia scoparia) [1]; 500 g ai/ha)
70: Plant response rating, Ryegrass, Italian ([18]; 500 g ai/ha)
40: Plant response rating, Galium ([5]; 125 g ai/ha)
100: Ragweed plant response rating ([6]; 500 g ai/ha) | Plant response rating, Pigweed ([12]; 500 g ai/ha)
30: Kochia plant response rating (kochia (Kochia scoparia) [1]; 125 g ai/ha) | Ryegrass, Italian plant response rating ([11]; 125 g ai/ha)
0: Plant response rating, Rice (0 to 100 scale, 0 is no effect, 100 is complete control) (rice (Oryza sativa)) | Plant response rating, Blackgrass ([3]; 125 g ai/ha) | Plant response rating, Barnyardgrass ([4]; 125 g ai/ha) | Plant response rating, Foxtail, Giant ([7]; 125 g ai/ha) | Plant response rating, Barnyardgrass (0 to 100 scale, 0 is no effect, 100 is complete control) [8] | Plant response rating, Sedge, Umbrella (0 to 100 scale, 0 is no effect, 100 is complete control) [10] | Plant response rating, Corn (corn (Zea mays); 125 g ai/ha) | Plant response rating, Corn (corn (Zea mays); 500 g ai/ha) | Barnyardgrass plant response rating ([13]; 125 g ai/ha) | Barnyardgrass plant response rating ([13]; 500 g ai/ha) | Plant response rating, Ducksalad (0 to 100 scale, 0 is no effect, 100 is complete control) [15] | Plant response rating, Wheat ([17]; 125 g ai/ha) | Plant response rating, Wheat ([17]; 500 g ai/ha) | Plant response rating, Ryegrass, Italian ([18]; 125 g ai/ha)
50: Pigweed plant response rating ([16]; 125 g ai/ha)
80: Plant response rating, Ragweed ([2]; 500 g ai/ha) | Plant response rating, Galium ([5]; 500 g ai/ha) | Plant response rating, Pigweed ([12]; 125 g ai/ha) | Pigweed plant response rating ([16]; 500 g ai/ha)
60: Ragweed plant response rating ([6]; 125 g ai/ha) | Foxtail, Giant plant response rating ([9]; 500 g ai/ha) | Ryegrass, Italian plant response rating ([11]; 500 g ai/ha) | Plant response rating, Kochia (kochia (Kochia scoparia) [14]; 500 g ai/ha)
20: Plant response rating, Ragweed ([2]; 125 g ai/ha) | Plant response rating, Blackgrass ([3]; 500 g ai/ha) | Plant response rating, Barnyardgrass ([4]; 500 g ai/ha) | Plant response rating, Foxtail, Giant ([7]; 500 g ai/ha) | Foxtail, Giant plant response rating ([9]; 125 g ai/ha)
10: Plant response rating, Kochia (kochia (Kochia scoparia) [14]; 125 g ai/ha)

Cc1nc(NC(C)c2cc3ccccc3s2)nc(N)c1C(F)(F)F (stereo not drawn) [Compound 105]
70: Plant response rating, Ragweed ([2]; 125 g ai/ha)
100: Kochia plant response rating (kochia (Kochia scoparia) [1]; 500 g ai/ha) | Plant response rating, Ragweed ([2]; 500 g ai/ha) | Ragweed plant response rating ([6]; 125 g ai/ha) | Ragweed plant response rating ([6]; 500 g ai/ha) | Foxtail, Giant plant response rating ([9]; 500 g ai/ha) | Plant response rating, Kochia (kochia (Kochia scoparia) [14]; 500 g ai/ha) | Pigweed plant response rating ([16]; 125 g ai/ha) | Pigweed plant response rating ([16]; 500 g ai/ha) | Plant response rating, Ryegrass, Italian ([18]; 125 g ai/ha) | Plant response rating, Ryegrass, Italian ([18]; 500 g ai/ha)
60: Plant response rating, Barnyardgrass ([4]; 500 g ai/ha) | Plant response rating, Foxtail, Giant ([7]; 500 g ai/ha) | Plant response rating, Pigweed ([12]; 500 g ai/ha) | Barnyardgrass plant response rating ([13]; 500 g ai/ha)
30: Plant response rating, Barnyardgrass ([4]; 125 g ai/ha)
90: Kochia plant response rating (kochia (Kochia scoparia) [1]; 125 g ai/ha) | Plant response rating, Galium ([5]; 125 g ai/ha) | Plant response rating, Galium ([5]; 500 g ai/ha) | Ryegrass, Italian plant response rating ([11]; 500 g ai/ha)
20: Ryegrass, Italian plant response rating ([11]; 125 g ai/ha)
40: Foxtail, Giant plant response rating ([9]; 125 g ai/ha) | Barnyardgrass plant response rating ([13]; 125 g ai/ha)
0: Plant response rating, Rice (0 to 100 scale, 0 is no effect, 100 is complete control) (rice (Oryza sativa)) | Plant response rating, Blackgrass ([3]; 125 g ai/ha) | Plant response rating, Blackgrass ([3]; 500 g ai/ha) | Plant response rating, Foxtail, Giant ([7]; 125 g ai/ha) | Plant response rating, Barnyardgrass (0 to 100 scale, 0 is no effect, 100 is complete control) [8] | Plant response rating, Sedge, Umbrella (0 to 100 scale, 0 is no effect, 100 is complete control) [10] | Plant response rating, Corn (corn (Zea mays); 125 g ai/ha) | Plant response rating, Corn (corn (Zea mays); 500 g ai/ha) | Plant response rating, Pigweed ([12]; 125 g ai/ha) | Plant response rating, Ducksalad (0 to 100 scale, 0 is no effect, 100 is complete control) [15] | Plant response rating, Wheat ([17]; 125 g ai/ha) | Plant response rating, Wheat ([17]; 500 g ai/ha)
80: Plant response rating, Kochia (kochia (Kochia scoparia) [14]; 125 g ai/ha)
